Test results as given in US20230183647A1, “METHOD FOR GENERATING FUNCTIONAL SKELETAL MUSCLE FIBERS INNERVATED BY MOTONEURONS” (ASSOCIATION FRANCAISE CONTRE LES MYOPATHIES (AFM), priority 2020, published 2023).
Entries after “also recorded” stand apart in the source; their conditions may differ.

What was measured:
hiPSC-derived myofibers = assay type: cell-based, human
[1] = test system: hiPSC-derived innervated myofibers; assay: Transient Calcium influx (Calcium handling) in hiPSC-derived innervated myofibers after drug addition; assay type: cell-based, human; details: for Calcium release: cells at D45, single addition
Method: A-D. We measured the transient Calcium influx in control myofibers prior to drug addition (0 hr) and at different time points after a single addition of different concentrations of each drug. Violin plots display the number of influx per minute and per fiber (n>50). Statistical significance was determined using ANOVA multiple comparison test followed by Brown-Forsythe and Welch correction and comparison to the basal condition (prior to drug addition). A. 0; 2 and 20 μM for Glutamate, B. 0; 1 and 10 μM for Salbutamol. C. 0; 0.5 and 1 mM for Carisoprodol. D. 0; 10 and 100 μM for Mexiletine.
Calcium transients were measured after addition to the cell culture medium of FLUO-8AM fluorescent Ca^2+ indicator (AAT Bioquest). Cells were incubated for 30 min at 37° c in DM+I medium containing 5 μM Fluo8-AM and 0.04% Pluronic acid before imaging on a Fast Imaging Observer system (Axio Observer.Z1/7; Zeiss) with a 10× lens (10×/0.30 M27 DIC I EC Plan-Neofluar; […]). Fluorescence was excited at 488 nm and emission collected at >509 nm. Images were acquired as time series. Different regions were tracked to record the fluorescent intensity at a 10× magnification during 30 seconds and an interval of 200,0 ms corresponding to 151 frames. Analysis was performed using the Zen pro software (Zeiss). ROI was created for selected fibers then intensity mean for each fiber was exported and Calcium transients were calculated by counting the number of peaks intensity for each graph.
For drug treatment, cells were seeded and differentiated in 6 to 12-well plates for 45 days. We tested the activity of Mexiletine (M2727, Sigma Aldrich, 10; 100 μM diluted in methanol), Carisoprodol (C8759, Sigma Aldrich, […]; […] diluted in ethanol), Salbutamol (S8260, Sigma Aldrich, 1 μM; 10 μM, diliuted in methanol) and L-Glutamic acid potassium salt monohydrate (G1501, Sigma Aldrich, 2 μM; 20 μM diluted in H2O) added at 0.1% in the culture medium on fiber contractions. Cell contractions were captured as described for Calcium handling measurements.
To evaluate the potential application of hiPSC-derived innervated myofibers as a preclinical model for drug testing, we tested the response to different classes of pharmaceutical agents by real time video microscopy and Calcium handling analysis. Cells at D45 were treated for different durations with different concentrations of each molecule at (FIG. 8A-D).

NC1=N[C@H](O)[C@H]2[C@H]3O[C@]4(O)O[C@@H]([C@@H](O)[C@@]2(N1)[C@@H]4O)[C@]3(O)CO [Tetrodotoxin]
cell contraction after drug addition (mean number of contractions) (hiPSC-derived myofibers): irreversibly blocked; also recorded: irreversibly inhibits cell contraction

CCCC(C)(COC(N)=O)COC(=O)NC(C)C (centres unmarked) [Carisoprodol]
muscle contraction (Calcium influx) ([1]; 0.5 to 1 mM, cells at D45): reduces muscle contraction 3 to 4 hrs

Cc1cccc(C)c1OCC(C)N (centres unmarked) [Mexiletine]
Calcium handling ([1]; 10 μM, cells at D45): decrease in Calcium handling 2 hrs
Calcium handling ([1]; 100 μM, cells at D45): sharp decrease 1 to 2 hrs

Alpha Bungarotoxin
cell contraction after drug addition (mean number of contractions) (hiPSC-derived myofibers): irreversibly blocked; also recorded: irreversibly inhibits cell contraction

CC(C)(C)NCC(O)c1ccc(O)c(CO)c1 (centres unmarked) [Salbutamol]
Ca2+ handling ([1]; 1 μM and 10 μM, cells at D45): decreases Ca^2+ handling as early as 4 hours

N[C@@H](CCC(=O)[O-])C(=O)[O-].O.[K+].[K+] [Glutamate, L-Glutamic acid potassium salt monohydrate]
Calcium release ([1]; 2 μM): did not observe any difference
Calcium release ([1]; 20 μM): increased activity 20 to 30 minutes
